One assay concerns the target vanilloid VRI receptors (Homo sapiens, UniProt Q8NER1). The note with it: cited from earlier work.
Assay [1] in a line: Neurobehavioral tetrad (tail flick, locomotor activity, ring immobility, core body temperature). The class given is in vivo, mice. The source says: The protocol of the tail-flick test was as follows. The apparatus that was used for the tail-flick test contained a light source placed directly above a photocell connected to a timer. The mouse was held under a cloth by the technician conducting the experiment. The tail of the test animal was placed over the photocell and the light was turned on. When the test animal felt the discomfort of the heat from the light, it was freely able to remove its tail from the lamp. The photocell than sensed that the tail had moved and the timer was stopped. The typical nontreatment reaction time for an animal subjected to this test was about 2-4 seconds. This test involved a spinal reflex action similar to the removal of a finger from a hot stove. In treated animals, the latency to remove the tail lengthens in proportion to the analgesic potency of the drug. No animal was allowed to remain under the lamp for greater than 10 seconds to prevent any burns to the tail. No animal was subjected twice to this test.
Locomotor activity, ring immobility, and core body temperature parameters were measured as described in detail by Smith et al. (J. Pharmacol. Exp.Ther. (1994) 270; 219-227). Briefly, spontaneous locomotor activity is expressed as % inhibition vs. control. Mice were placed in individual activity cages 5 minutes post treatment, and interruption of the photocell beams (16 beams/chamber) were recorded for a 10 minute period using a Digiscan Animal Activity Monitor (Omnitech). Core temperature was measured by a rectal thermistor inserted to 25 mm, before and 30 minutes after administration of Abn-cbd. Catalepsy (ring immobility procedure) was expressed as % of total time spent motionless. Test compound can be injected into a tail vain i.v., and measurements are performed at 5 min (spontaneous motility), min (tail flick latency), 60 min (Core temperature) or 90 min (ring immobility) after drug injection.
Adult ICR mice (25-30 g) were from Harlan (Indianapolis, Ind.). Both male and female animals were used for these studies. Animals were housed four at a cage with standard mouse chow and water ad libitum, and were maintained at […] under a 12:12 light:dark cycle.

Assay [2] deals with mesenteric vascular tone. Nature of the assay: Drug effects on mesenteric vascular tone in perfused mouse mesenteric area (phenylephrine-established tone). Also noted: species or system mice. The following applies: for vasodilation (agonist effect): intra arterial bolus, dose-response, FIG. 1; for dose lower than the dose of Abn-cbd required to produce similar vasodilation: relative to Abn-cbd; for mesenteric vasodilation: injected intraarterially as a 1 mg bolus; for inhibition of 0-1848-induced vasodilation: FIG. 2(B), 2(C). How it is done: For measuring drug effects on mesenteric vascular tone in mice, sodium pentobarbital-anesthetized mice were laparotornized and a PE50 cannula was inserted distally into the abdominal aorta. Both renal and both femoral arteries were ligated, the heart removed, and the mesenteric area including the liver was perfused with oxygenated Krebs buffer at 36° C., using a peristaltic pump and a constant flow rate of 0.7 ml/min. Perfusion pressure monitored close to the inflow cannula was 25-30 mmHg, and was increased to 60-70 mmHg by the inclusion of 15 μM phenylephrine in the medium. Vasodilator effects were expressed as % relaxation of established tone, 100% being equal to the difference in perfusion pressure in the absence and presence of phenylephrine.
Perfusion pressure monitored near the inflow cannula should be 25-30 mmHg (1 mmHg[…]133 Pa) and is increased to 60-70 mmHg by the inclusion of […] phenylephrine in the medium. Vasodilation is expressed as percent relaxation of established tone, 100% being equal to the difference in perfusion pressure in the absence and presence of phenylephrine.
Evaluation of vasodilator response was performed as in Example 1 except that after addition of either the agonists 0-1602 (FIG. 2A) or 0-1848 (FIG. 2B-2C) as intra arterial bolus injections, the mesenteric preparation was perfused with either drug free buffer (solid circles) or buffer containing […].

The subject of assay [3] is mesenteric arterial bed. Nature of the assay: Vascular tone in isolated mesenteric arterial bed, with or without antagonist or endothelial denudation. Also noted: species or system rat. The note with it: 100 μg, species not given. The protocol: The methods used to analyze drug effects on vascular tone in the rat isolated mesenteric arterial bed and to achieve endothelial denudation by brief perfusion with distilled water have been described in detail elsewhere (Wagner et al.(1999), Hypertension 33 (Part II), 429-434). Because of the long lasting vasodilator effect of anandamide, R-methanandamide and abnormal cannabidiol, each preparation was tested with a single dose of the agonist, either in the absence or the presence of an antagonist.

Assay [4] concerns mesenteric arterial bed. The following applies: cited from earlier work; for vasodilation: rat isolated / perfused mesenteric arterial bed.
For assay [5] the following is noted: cited from earlier work; for neurobehavioral effects: summary statement, no dose.
The target in assay [6] is T1, CB1 receptors (Rattus norvegicus, UniProt P20272).
T1 construct: from tissue; host or cells: rat brain P2 membranes
T1 sequence (P20272 whole entry): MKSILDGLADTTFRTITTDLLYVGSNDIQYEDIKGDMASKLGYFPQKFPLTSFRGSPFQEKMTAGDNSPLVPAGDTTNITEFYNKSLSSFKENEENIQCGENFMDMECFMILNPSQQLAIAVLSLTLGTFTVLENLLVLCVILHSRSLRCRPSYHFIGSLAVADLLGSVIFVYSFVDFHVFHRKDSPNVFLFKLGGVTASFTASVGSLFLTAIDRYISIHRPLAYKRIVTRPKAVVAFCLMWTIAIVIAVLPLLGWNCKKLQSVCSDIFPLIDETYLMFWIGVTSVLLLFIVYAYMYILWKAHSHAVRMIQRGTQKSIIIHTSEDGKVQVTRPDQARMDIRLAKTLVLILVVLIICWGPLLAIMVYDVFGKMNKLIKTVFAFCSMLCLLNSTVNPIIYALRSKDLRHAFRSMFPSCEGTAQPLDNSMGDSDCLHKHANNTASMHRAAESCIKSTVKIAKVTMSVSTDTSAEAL
The following applies: cited from earlier work; for binding to CB1 receptors: summary statement, no concentration.

The conditions of assay [7]: 10 mg/kg i.v., anesthetized rats; prevented by 3 mg/kg SR141716A; cited from earlier work.
For assay [8] the following is noted: 10 mg/kg i.v., anesthetized mice; prevented by 3 mg/kg SR141716A; cited from earlier work.
The target of assay [9] is T1, CB1 receptors. Nature of the assay: 3H-CP-55,940 radioligand binding to P2 membranes from rat brain. The note with it: concentration of 10 μM.
In assay [10] the test system is mesenteric vascular tone. Nature of the assay: Drug effects on mesenteric vascular tone in perfused mouse mesenteric area (phenylephrine-established tone). Also noted: species or system mice. The note with it: antagonist at 10 μM in perfusion buffer, FIG. 2(A).
Assay [11] in a line: Blood pressure in urethane-anaesthetized spontaneous hypertensive (SHR) rats. It counts as in vivo. The following applies: 5 animals.

Read-outs that look alike come from different tables or passages of the source.

vanilloid VRI receptors, sequence (Q8NER1 whole entry): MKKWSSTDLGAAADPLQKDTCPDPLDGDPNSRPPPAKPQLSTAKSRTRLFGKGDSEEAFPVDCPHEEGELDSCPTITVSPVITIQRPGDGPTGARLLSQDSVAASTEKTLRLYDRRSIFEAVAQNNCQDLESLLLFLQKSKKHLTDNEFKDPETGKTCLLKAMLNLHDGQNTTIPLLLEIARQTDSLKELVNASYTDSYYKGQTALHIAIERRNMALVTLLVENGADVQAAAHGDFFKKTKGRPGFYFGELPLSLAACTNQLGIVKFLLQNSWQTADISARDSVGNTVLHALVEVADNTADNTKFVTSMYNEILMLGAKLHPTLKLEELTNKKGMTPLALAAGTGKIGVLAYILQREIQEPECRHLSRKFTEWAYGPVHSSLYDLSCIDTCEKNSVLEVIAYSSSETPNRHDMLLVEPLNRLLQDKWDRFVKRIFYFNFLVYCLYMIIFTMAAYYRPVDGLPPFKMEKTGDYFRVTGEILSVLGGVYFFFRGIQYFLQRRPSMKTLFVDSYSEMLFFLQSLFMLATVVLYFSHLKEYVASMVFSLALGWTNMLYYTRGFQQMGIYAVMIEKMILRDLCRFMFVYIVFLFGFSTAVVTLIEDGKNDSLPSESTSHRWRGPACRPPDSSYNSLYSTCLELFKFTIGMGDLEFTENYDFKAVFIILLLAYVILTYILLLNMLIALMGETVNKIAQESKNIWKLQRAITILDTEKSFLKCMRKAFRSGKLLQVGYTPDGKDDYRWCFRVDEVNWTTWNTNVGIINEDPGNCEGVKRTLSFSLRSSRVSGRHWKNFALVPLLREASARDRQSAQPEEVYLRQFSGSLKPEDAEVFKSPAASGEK

What is called Kd is a measure of binding affinity in units of concentration. With `Oc1cc2c(cc1O)CN(C(=S)NCCc1ccc(Cl)cc1)CCC2` [capsazepine], the Kd at vanilloid VRI receptors was 285 nM.

As for `C=C(C)[C@@H]1CCC(C)=CC1c1c(C)cc(O)cc1O` (some centres unmarked) [0-1602], in [1] (dose not given), the “response in the tetrad of standard neurobehavioral effects” value (“response in the tetrad” below) is “does not elicit a response”. Further, in the assay on mesenteric vascular tone [2], the “vasodilation (agonist effect)” value is “dose-dependent pronounced vasodilation” and the “dose lower than the dose of Abn-cbd required to produce similar vasodilation” value is recorded as 80 ×. Besides, in the assay on mesenteric arterial bed [3] (n=3, P<0.005), the “vasodilation after endothelial denudation” value is recorded as 18%±2 and the “vasodilation in the presence of SR141716A” value is recorded as 15%±3. The vasodilation with mesenteric arterial bed [3] (n=4) is 54%±2.

On to `CCCCC/C=C\C/C=C\C/C=C\C/C=C\CCCC(=O)NCCO` [anandamide, arachidonyl ethanolamide], for which the vasodilation entry with mesenteric arterial bed [4] is given as “elicits prolonged vasodilation”.

Consider `Cc1c(C(=O)c2cccc3ccccc23)c2cccc3c2n1[C@H](CN1CCOCC1)CO3` [WIN 55212-2], for which, in the assay on mesenteric arterial bed [4], the vasodilation result is on record as “do not have a vasodilator effect”.

With `CCCCCc1cc(O)c2c(c1)OC(C)(C)[C@@H]1CCC(C)=C[C@@H]21` [THC, Δ9-trahydrocannabinol], the vasodilation result in the assay with mesenteric arterial bed [4] is “do not have a vasodilator effect”.

In the case of `C=C(C)[C@@H]1CCC(C)=CC1c1c(O)cc(O)cc1CCCCC` (single isomer, unassigned; (-)) [Abn-cbd, (−)-4-(3-3,4-trans-p-menthadien-1,8)-yl-olivetol], the marijuana-like neurobehavioral effects result in assay [5] (doses up to 60 mg/kg, mice) is listed as “does not cause marijuana-like neurobehavioral effects”. Further, in assay [5], the neurobehavioral effects entry is “does not elicit cannabinoid-like neurobehavioral effects”. In addition, the “displacement of a potent known ligand from CB1 cannabinoid receptors” value on CB1 receptors [6] (concentrations up to 100 uM, rat brain plasma membrane preparation) was “failed to displace”. Further, on CB1 receptors [6], the “binding to CB1 receptors” value was “does not bind”. Besides, in the assay with mesenteric arterial bed [4] (100 μM L-NAME and 10 μM indomethacin in the perfusion buffer), the “vasodilator response in the presence of L-NAME and indomethacin” value is “remains unchanged”. Besides, the “vasodilation in the presence of capsazepine” value in the assay with mesenteric arterial bed [4] (bolus injection of 4 mg, 5 μM capsazepine) is recorded as “same long lasting vasodilation”. Besides, in the assay with mesenteric arterial bed [4], the vasodilation entry is recorded as “caused vasodilation”. Besides, the hypotension entry in [7] and in assay [8] was “cause hypotension” each time.

For the compound `C=C(C)[C@@H]1CCC(C)=C[C@H]1c1c(O)cc(CCCCC)cc1O` [cannabidiol], the neurobehavioral effects entry in [5] is given as “devoid of neurobehavioral effects”. Moreover, on CB1 receptors [6], the “binding to CB1 receptors” value is reported as “does not bind”. In the assay with mesenteric arterial bed [4] (species not stated), the “antagonism of the vasodilator effect of Abn-cbd” value is “able to antagonize” and the mesenteric vasodilation entry was “does not elicit mesenteric vasodilation”.

For `C=C(C)[C@@H]1CCC(C)=CC1c1c(O)cc(C)cc1O` (single isomer, unassigned; (-)) [0-1821, (−)-2-(3-3,4-trans-p-menthadien-(1,8)-orcinol], in [1] (30 μg/kg), the “response in the tetrad” value was “does not elicit a response”. Moreover, at CB1 receptors [9], the “binding to CB1 receptors” value is on record as “no significant binding”. In the assay with mesenteric vascular tone [2] (FIG. 2(A), antagonist in perfusion buffer), the “inhibition of 0-1602-induced vasodilation” value is on record as “dose-dependent pronounced inhibition”. Further, in the assay on mesenteric vascular tone [2], the mesenteric vasodilation result is reported as “did not elicit vasodilation”. In addition, the “inhibition of the vasodilatory effect of compound 0-1602” value in the assay on mesenteric vascular tone [10] is recorded as “almost complete inhibition”.

Consider `C=C(C)[C@@H]1CCC(C)=CC1c1c(O)cccc1O` (some centres unmarked) [0-1847], for which, in assay [1] (30 μg/kg), the “response in the tetrad” value is on record as “does not elicit a response”. Moreover, the “binding to CB1 receptors” value at CB1 receptors [9] was “no significant binding”. The “inhibition of 0-1848-induced vasodilation” value with mesenteric vascular tone [2] (antagonist in perfusion buffer) is “dose-dependent pronounced inhibition”. Also, the mesenteric vasodilation result with mesenteric vascular tone [2] is given as “did not elicit mesenteric vasodilation”.

With `C=C(C)[C@@H]1CCC(C)=CC1c1c(O)c(I)c(C)c(I)c1O` (single isomer, unassigned; (-)) [0-1868, (−)-2-(3-3,4-trans-p-menthadien-(1,8)-4,6-diiodoorcinol], the “response in the tetrad” value in assay [1] (30 μg/kg) is listed as “does not elicit a response”. Besides, at CB1 receptors [9], the “binding to CB1 receptors” value is on record as “no significant binding”. In the assay on mesenteric vascular tone [2] (antagonist in perfusion buffer), the “inhibition of 0-1848-induced vasodilation” value was “dose-dependent pronounced inhibition”. Further, the mesenteric vasodilation entry with mesenteric vascular tone [2] was “did not elicit mesenteric vasodilation”.

Regarding `CCCCCCC(C)(C)c1cc(O)c2c(c1)OC(C)(C)[C@@H]1CC=C(CO)C[C@@H]21` [HU-210], the vasodilation result in the assay with mesenteric arterial bed [4] was “do not have a vasodilator effect”.

As to `C=C(C)[C@@H]1CCC(C)=CC1c1ccc(O)cc1O` (some centres unmarked) [0-1848], the “response in the tetrad” value in assay [1] (dose not given) is “does not elicit a response”. Moreover, in the assay with mesenteric vascular tone [2], the “vasodilation (agonist effect)” value is reported as “dose-dependent pronounced vasodilation” and the “dose lower than the dose of Abn-cbd required to produce similar vasodilation” value was found to be 80 ×. Besides, the “hypotensive effect (reduction in mean blood pressure)” value in assay [11] is “elicits a hypotensive effect”.

The record behind these values is patent publication US6563009B1, “Vasodilator cannabinoid analogs” (priority 1999, dated 2003).
